In patent US20090124691A1, “INHIBITOR OF INCREASE IN POSTPRANDIAL BLOOD INSULIN LEVEL” (Kao Corporation, priority 2006, published 2009):

Test system: blood insulin level
Assay: Effect of monoacylglycerol in inhibiting postprandial increase in blood insulin level in mouse (oral emulsion, ELISA, AUC)
Assay type: in vivo, Male C57BL/6J mice
Conditions: mice, TAG compared with only glucose, MAG in an amount of 1/10 or 1/5 of that of TAG compared with TAG/MAG0 group
Procedure: Triolein was employed as a triacylglycerol, and 1-monoolein was employed as a monoacylglycerol.
Male C57BL/6J mice (eight weeks old) were divided into groups (eight mice each). Through a probe, mice of the respective groups were orally administered the following substance: only glucose (2 mg/g-body weight) (Glucose); glucose (2 mg/g-body weight) plus triolein (TAG) (2 mg/g-body weight) emulsified with egg yolk lecithin (0.02 mg/g-body weight) (TAG/MAGO); TAG/MAGO supplemented with 1-monoolein (MAG) of 0.08, 0.2 and 0.4 mg/g-body weight, respectively (TAG/MAG1, TAG/MAG2 and TAG/MAG3). […] Blood was collected from the orbital vein of each mouse over time until 30 minutes after oral administration, and blood insulin level was measured, followed by calculation of the area under the curve (AUC) of a graph. Blood insulin level was measured through ELISA (insulin assay kit, product of Morinaga Institute of Biological Science, Inc.).

## CCCCCCCC/C=C\CCCCCCCC(=O)OCC(O)CO (stereo not shown) [MAG, 1-monoolein]
  postprandial blood insulin level (amount of postprandial insulin secretion), result in words: decreased postprandial blood insulin level
